Where two headings read alike, the source gives them in different places.
Legend:
[1] = target: T1, Ba/F3 cells containing Ros1 wild-type protein (Homo sapiens, UniProt P08922, cells depend on it, form not given); assay: Ba/F3-Ros1 cell proliferation assay, wild-type Ros1; format: cell-based, murine; conditions: without IL-3
T1 construct: The background only speaks of 'a number of different unrelated proteins' and names SLC34A2-ROS1 for HCC78 cells
Procedure, shortened: (§1)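 Compounds dispensed from 100% DMSO; Ba/F3 cells carrying one of three Ros1 forms added at 20000/well in RPMI-1640 with 10% FBS. Plates kept 24 h at 37 °C under 5% CO2. Alamar Blue added, 4 h further incubation, fluorescence measured at 540/590 nm.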

[2] = target: Ba/F3 cells containing Ros1 with a mutation at the gatekeeper residue (L2026M) (Homo sapiens, UniProt P08922, L2026M, cells depend on it, form not given); assay: Ba/F3-Ros1 cell proliferation assay, L2026M gatekeeper mutant; format: cell-based, murine; conditions: without IL-3
Procedure, shortened: as §1

[3] = tested on: HCC78 non-small cell lung cancer cells; assay: HCC78 cell proliferation assay; format: cell-based; conditions: for EC50: Homo sapiens, HCC78, 96 h, read-out: HCC-78 PROL pEC50 (converted)
Method: HCC78 Cell Proliferation Assay
Approximately 1000 HCC78 non-small cell lung cancer cells in 180 μl of cell culture medium (RPMI-1640, 10% FBS, 2 mM L-Glutamine, 10 mM Hepes, 1 mM sodium pyruvate, 4.5 g/L glucose, 1.5 g/L sodium bicarbonate, 25 μg/ml Gentamycin) were seeded in each well of a 96-well polystyrene, tissue-culture treated plate and incubated at 37° C. and 5% CO2. After 24 hours, compounds were diluted in cell culture medium from which 20 μl was added to the wells containing cells and incubated for 4 days at 37° C. and 5% CO2. A 5 mg/ml solution of the tetrazolium dye MTT was prepared in PBS (phosphate-buffered saline) and 25 μl was added to each well. After 2 hours the medium was removed and replaced by 125 μL of 4/1 DMSO/glycine buffer (0.1M glycine, 0.1M NaCl, pH 10.5) before absorbance was determined at 538 nm.

[4] = target: T2, Ros1 enzyme (Homo sapiens, UniProt P08922); assay: Ros1 enzymatic assay; format: biochemical; conditions: Ros1 enzymatic assay; for IC50: read-out: ROS1 pIC50 (converted)
T2 construct: 0.5 μg/ml Ros1 enzyme
Procedure, shortened: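 Radiometric proximity read-out: 33P incorporated into IRS-Tide captured on streptavidin imaging beads and imaged on LEADseeker. Phosphorylation ran 120 min at RT with 20 μM ATP (substrate-mix level) in Tris pH7.5/MgCl2/EGTA/Tween buffer; EDTA stop.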

[5] = tested on: Ba/F3 cells containing Ros1 wild-type protein + IL-3; assay: Ba/F3-Ros1 cell proliferation counter-screen, wild-type protein in the presence of 10 ng/ml murine IL-3; format: cell-based; conditions: Mus musculus, BaF3, 24 h, read-out: BaF3-ROS1 + IL3 pIC50 (converted)
Procedure, shortened: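 IL-3 rescue counter-screen: WT Ros1 Ba/F3, 10 ng/ml mIL-3, 24 h compound exposure, 37 °C/5% CO2; Alamar Blue added 4 h, RFU ex540/em590.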

[6] = counter-screen, wild-type, 10 ng/ml murine IL-3

Sequence of Ba/F3 cells containing Ros1 with a mutation at the gatekeeper residue (L2026M) (P08922 whole entry L2026M, form open): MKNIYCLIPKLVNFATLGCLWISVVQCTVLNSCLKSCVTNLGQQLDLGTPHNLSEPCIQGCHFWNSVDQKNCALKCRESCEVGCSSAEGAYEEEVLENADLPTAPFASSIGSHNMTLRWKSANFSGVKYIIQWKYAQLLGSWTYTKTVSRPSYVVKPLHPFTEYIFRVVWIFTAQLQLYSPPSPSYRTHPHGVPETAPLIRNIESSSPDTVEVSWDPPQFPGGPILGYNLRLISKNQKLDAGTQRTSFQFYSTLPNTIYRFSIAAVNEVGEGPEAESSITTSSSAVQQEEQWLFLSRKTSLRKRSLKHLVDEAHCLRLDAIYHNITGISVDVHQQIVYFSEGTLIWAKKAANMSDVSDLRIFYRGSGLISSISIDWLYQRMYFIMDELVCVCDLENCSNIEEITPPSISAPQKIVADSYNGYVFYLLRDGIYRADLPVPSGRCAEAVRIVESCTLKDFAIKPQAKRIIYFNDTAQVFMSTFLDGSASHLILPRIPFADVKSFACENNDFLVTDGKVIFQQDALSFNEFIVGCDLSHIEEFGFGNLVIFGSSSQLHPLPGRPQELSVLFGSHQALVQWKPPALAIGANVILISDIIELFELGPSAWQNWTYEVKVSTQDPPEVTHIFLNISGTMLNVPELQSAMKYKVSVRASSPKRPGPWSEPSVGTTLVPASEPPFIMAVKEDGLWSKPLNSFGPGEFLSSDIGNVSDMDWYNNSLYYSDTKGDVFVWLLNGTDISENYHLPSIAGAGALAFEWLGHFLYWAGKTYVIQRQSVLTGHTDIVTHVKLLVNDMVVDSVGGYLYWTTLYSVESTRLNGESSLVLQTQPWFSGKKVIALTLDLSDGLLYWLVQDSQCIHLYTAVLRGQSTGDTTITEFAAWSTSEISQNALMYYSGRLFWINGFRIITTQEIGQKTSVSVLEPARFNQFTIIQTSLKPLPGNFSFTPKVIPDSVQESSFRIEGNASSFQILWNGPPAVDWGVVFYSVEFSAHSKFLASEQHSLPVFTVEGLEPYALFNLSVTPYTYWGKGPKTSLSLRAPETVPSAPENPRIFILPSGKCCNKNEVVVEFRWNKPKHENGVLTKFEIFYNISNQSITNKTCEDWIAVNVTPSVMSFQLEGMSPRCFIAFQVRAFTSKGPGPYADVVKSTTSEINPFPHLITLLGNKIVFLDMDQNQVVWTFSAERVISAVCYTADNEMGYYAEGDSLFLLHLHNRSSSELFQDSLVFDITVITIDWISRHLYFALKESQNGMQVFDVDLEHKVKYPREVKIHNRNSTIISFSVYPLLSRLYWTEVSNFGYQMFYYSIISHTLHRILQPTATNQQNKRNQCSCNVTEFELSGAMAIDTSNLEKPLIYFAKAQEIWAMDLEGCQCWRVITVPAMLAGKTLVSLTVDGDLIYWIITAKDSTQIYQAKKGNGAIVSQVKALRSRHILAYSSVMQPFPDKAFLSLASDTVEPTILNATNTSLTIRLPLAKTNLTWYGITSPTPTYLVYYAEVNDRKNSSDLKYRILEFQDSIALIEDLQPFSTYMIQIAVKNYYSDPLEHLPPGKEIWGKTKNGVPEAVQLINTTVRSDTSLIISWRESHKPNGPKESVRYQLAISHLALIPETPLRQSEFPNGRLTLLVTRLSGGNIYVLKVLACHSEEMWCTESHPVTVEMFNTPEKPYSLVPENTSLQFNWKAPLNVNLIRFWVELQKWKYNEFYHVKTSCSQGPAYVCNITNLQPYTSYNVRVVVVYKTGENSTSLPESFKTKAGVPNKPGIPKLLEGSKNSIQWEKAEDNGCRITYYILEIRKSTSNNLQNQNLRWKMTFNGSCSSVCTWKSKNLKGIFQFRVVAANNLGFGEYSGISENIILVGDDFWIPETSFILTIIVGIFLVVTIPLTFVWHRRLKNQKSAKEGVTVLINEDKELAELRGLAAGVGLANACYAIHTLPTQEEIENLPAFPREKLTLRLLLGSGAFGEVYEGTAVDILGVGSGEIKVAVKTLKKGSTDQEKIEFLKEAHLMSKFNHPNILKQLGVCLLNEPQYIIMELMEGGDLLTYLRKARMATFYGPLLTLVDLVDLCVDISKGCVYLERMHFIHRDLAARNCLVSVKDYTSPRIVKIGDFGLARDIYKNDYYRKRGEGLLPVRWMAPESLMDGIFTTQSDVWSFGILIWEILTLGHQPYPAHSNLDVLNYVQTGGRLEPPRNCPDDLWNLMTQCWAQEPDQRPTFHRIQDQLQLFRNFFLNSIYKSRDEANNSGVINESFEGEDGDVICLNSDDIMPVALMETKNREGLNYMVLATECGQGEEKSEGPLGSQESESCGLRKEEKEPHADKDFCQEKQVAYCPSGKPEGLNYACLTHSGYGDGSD
T1 sequence (P08922 whole entry, stated change not applied): as the sequence (P08922 whole entry L2026M, form open) above, with M2026L counted along it
T2 sequence (P08922 28-2347): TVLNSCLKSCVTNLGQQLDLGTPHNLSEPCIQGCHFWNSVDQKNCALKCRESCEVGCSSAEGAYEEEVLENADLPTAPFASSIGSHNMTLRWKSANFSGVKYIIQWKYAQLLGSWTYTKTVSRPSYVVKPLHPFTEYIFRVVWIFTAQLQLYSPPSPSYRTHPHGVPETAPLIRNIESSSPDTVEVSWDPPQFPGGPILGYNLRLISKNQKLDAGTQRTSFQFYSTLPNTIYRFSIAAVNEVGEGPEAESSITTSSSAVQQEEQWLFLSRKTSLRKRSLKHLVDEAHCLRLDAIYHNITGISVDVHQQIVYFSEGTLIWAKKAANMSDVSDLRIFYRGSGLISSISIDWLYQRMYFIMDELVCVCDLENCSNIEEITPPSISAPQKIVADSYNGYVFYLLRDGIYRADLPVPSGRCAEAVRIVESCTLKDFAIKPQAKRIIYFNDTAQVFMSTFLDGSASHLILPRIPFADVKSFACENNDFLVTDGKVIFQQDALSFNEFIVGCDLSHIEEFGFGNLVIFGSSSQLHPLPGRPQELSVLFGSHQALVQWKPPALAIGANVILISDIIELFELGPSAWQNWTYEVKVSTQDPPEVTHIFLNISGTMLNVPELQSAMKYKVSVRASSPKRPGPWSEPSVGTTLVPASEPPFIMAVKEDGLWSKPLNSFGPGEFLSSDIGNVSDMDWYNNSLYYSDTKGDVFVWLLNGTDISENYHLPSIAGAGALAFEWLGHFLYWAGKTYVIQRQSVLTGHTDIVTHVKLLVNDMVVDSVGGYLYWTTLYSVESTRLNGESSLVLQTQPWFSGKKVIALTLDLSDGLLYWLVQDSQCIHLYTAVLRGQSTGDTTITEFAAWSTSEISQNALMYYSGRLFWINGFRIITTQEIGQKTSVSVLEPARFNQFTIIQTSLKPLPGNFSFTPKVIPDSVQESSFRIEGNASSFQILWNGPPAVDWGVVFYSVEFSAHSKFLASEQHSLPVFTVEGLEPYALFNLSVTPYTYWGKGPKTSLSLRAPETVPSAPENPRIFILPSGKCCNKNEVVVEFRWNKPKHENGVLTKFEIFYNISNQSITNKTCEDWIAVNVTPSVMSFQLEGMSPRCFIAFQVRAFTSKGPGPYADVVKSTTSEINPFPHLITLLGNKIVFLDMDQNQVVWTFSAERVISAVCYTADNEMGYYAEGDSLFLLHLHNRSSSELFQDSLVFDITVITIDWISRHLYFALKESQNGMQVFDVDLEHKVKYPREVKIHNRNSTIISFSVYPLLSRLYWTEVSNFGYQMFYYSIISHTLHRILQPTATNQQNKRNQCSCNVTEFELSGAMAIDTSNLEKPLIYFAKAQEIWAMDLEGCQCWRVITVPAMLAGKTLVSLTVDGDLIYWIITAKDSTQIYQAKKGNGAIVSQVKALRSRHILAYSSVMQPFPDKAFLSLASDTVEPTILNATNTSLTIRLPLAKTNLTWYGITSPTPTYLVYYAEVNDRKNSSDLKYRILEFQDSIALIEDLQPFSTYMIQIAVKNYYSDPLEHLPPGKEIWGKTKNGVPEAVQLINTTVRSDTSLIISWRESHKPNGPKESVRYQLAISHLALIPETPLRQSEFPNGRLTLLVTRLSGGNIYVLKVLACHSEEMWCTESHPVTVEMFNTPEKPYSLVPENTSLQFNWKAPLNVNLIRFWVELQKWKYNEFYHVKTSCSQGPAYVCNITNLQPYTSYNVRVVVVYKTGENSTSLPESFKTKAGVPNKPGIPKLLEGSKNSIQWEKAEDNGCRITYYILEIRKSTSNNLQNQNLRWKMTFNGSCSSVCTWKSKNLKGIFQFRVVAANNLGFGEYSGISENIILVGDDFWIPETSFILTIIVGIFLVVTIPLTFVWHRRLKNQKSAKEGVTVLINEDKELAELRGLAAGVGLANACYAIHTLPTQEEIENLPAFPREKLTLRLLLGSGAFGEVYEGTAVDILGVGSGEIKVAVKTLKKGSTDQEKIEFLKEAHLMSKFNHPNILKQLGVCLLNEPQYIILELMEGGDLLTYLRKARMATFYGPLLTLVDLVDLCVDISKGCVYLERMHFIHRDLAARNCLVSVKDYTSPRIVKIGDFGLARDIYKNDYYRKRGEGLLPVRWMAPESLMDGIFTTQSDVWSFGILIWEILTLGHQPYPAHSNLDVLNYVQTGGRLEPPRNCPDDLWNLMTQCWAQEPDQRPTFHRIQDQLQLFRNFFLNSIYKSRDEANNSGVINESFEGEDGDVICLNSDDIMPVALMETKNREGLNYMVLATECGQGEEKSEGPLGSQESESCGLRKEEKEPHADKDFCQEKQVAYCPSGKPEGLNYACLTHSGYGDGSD

| BaF3-ROS1-IL3 pIC50 [1] | Ba/F3 Ros1 L2026M (-IL-3) pIC50 [2] | HCC-78 PROL pEC50 ([3]; HCC78 cells, 4 days, MTT) | melting point [°C] | EC50 ([3]; HCC78 cells, 4 days, MTT) [nM] | ROS1 pIC50 [4] | SMILES | IC50 [4] [nM] | EC50 [3] [nM] | CC50 [5] [nM] | CC50 [5, 6] [nM] |
| --- | --- | --- | --- | --- | --- | --- | --- | --- | --- | --- |
| 6.6 | 6.0 | 5.7 | 183 |  |  | CC(C)c1cc(F)c(COc2ccc(-c3c(-c4ccncc4)nn4c3C(=O)N(CC(O)CO)CC4)cc2)cc1F (stereo not shown) [Compound 99] | 501 |  |  |  |
| 7.7 | 7.2 | 7.2 | 192 |  |  | CC(C)c1ccc(COc2ccc(-c3c(-c4ccncc4)nn4c3C(=O)N(CC(O)CO)CC4)c(F)c2)cc1 (stereo not shown) [Compound 23] | 12.6 |  |  | > 10000 |
| 6.9 | 6.9 | 6.2 | 151 |  | 6.8 | CC(O)CN1CCn2nc(-c3ccncc3)c(-c3ccc(OCc4ccc(C(C)C)cc4)cc3)c2C1 (stereo not shown) [Compound 192] |  |  |  |  |
| 7.3 | 7.0 | 6.5 | 197 |  |  | CC(O)CN1CCn2nc(-c3ccncc3)c(-c3ccc(OCc4ccc(C5CC5)cc4)cc3)c2C1=O (stereo not shown) [Compound 135] | 158 |  |  |  |
| 7.9 | 7.5 | 7.3 | 144 |  |  | CC(C)c1ccc(COc2ccc(-c3c(-c4ccncc4)nn4c3C(=O)N(C(C)CO)CC4)cc2)cc1 (single isomer, unassigned) [Compound 38] | 12.6 |  |  |  |
| 6.9 | 6.6 | 5.9 | 228 |  | 6.8 | CC(C)c1cc(F)c(COc2ccc(-c3c(-c4ccncc4)nn4c3C(=O)N(CC(O)CO)CC4)cc2)c(F)c1 (stereo not shown) [Compound 96] |  |  |  |  |
| 7.4 | 6.6 | 7.1 | 191 |  |  | CC(C)c1ccc(COc2ccc(-c3c(-c4ccncc4)nn4c3C(=O)N(CC(O)CO)CC4)cc2)cc1 (stereo not shown) [Compound 41] | 31.6 |  |  |  |
| 7.8 | 7.4 | 7.7 | 188 |  | 7.9 | CC(C)c1ccc(COc2ccc(-c3c(-c4ccncc4)nn4c3C(=O)N(CC(O)CO)CC4)c(F)c2)cc1 (stereo not shown) [Compound 22] |  |  |  |  |
| 6.3 | 5.9 |  | 233 | 1000 |  | CC(C)(CN)c1ccc(COc2ccc(-c3c(-c4ccncc4)nn4c3C(=O)NCC4)cc2)cc1 [Compound 121] |  |  |  | > 10000 |
| 6.8 |  | 6.4 | 227 |  |  | CC(C)c1cc(F)c(COc2ccc(-c3c(-c4ccncc4)nn4c3C(=O)N(CC(O)CO)CC4)cc2)c(F)c1 (stereo not shown) [Compound 95] | 158 |  |  | > 10000 |
| 7.4 | <5 |  |  | 200 |  | CC(=O)OC(C)CN1CCn2nc(-c3ccncc3)c(-c3ccc(OCc4ccc(C(C)C)cc4)cc3)c2C1=O (stereo not shown) [Compound 69] | 63.1 |  |  | > 10000 |

Second part, the compound before the results:

| SMILES | BaF3-ROS1-IL3 pIC50 [1] | Ba/F3 Ros1 L2026M (-IL-3) pIC50 [2] | HCC-78 PROL pEC50 ([3]; HCC78 cells, 4 days, MTT) | melting point [°C] | EC50 ([3]; HCC78 cells, 4 days, MTT) [nM] | ROS1 pIC50 [4] | IC50 [4] [nM] | EC50 [3] [nM] | CC50 [5] [nM] | CC50 [5, 6] [nM] |
| --- | --- | --- | --- | --- | --- | --- | --- | --- | --- | --- |
| COc1cc(-c2c(-c3ccncc3)nn3c2C(=O)NCC3)cc(OC)c1OCc1ccc(C(C)C)cc1 [Compound 35] | 5.7 | 5.8 |  | 192 |  |  | 5010 | > 10000 | > 10000 |  |
| CC(C)c1ccc(COc2ccc(-c3c(-c4ccncc4)nn4c3C(=O)NCC4)c(F)c2F)cc1 [Compound 16] | 7.4 | 7.1 |  | 214 |  |  | 100 | 398 | > 10000 |  |
| CC(C)c1ccc(COc2ccc(-c3c(-c4ccncc4Cl)nn4c3C(=O)NCC4)cc2)cc1 [Compound 154] | 6.9 | 7.1 |  | 207 |  |  | 100 | 316 | > 10000 |  |
| CC(C)c1ccc(COc2ccc(-c3c(-c4ccnc5[nH]ccc45)nn4c3C(=O)NCC4)cc2)cc1 [Compound 155] | 7.8 | 7.5 |  | 266 |  |  | 31.6 | 79.4 | > 10000 |  |
| CC(C)c1ccc(COC2CCN(c3c(-c4ccncc4)nn4c3C(=O)N(C)CC4)CC2)cc1 [Compound 215] | 7.0 | 7.2 |  | 140 | 251 |  | 126 |  |  | > 10000 |
| CC(C)Cc1ccc(COc2ccc(-c3c(-c4ccncc4)nn4c3C(=O)N(CCO)CC4)cc2)cc1 [Compound 109] | 7.1 | 7.2 |  | 155 |  |  | 100 | 398 | > 10000 |  |
| CC(C)c1ccc(C2COc3cc(-c4c(-c5ccncc5)nn5c4C(=O)NCC5)ccc3O2)cc1 (stereo not shown) [Compound 201] | 7.8 | 7.4 |  | 290 | 39.8 |  | 25.1 |  |  | > 10000 |
| Cc1ccc(COc2ccc(-c3c(-c4ccncc4)nn4c3C(=O)NCC4)cc2)cc1 [Compound 105] | 7.0 | 6.6 |  | 259 |  |  | 126 | 158 | > 10000 |  |
| CC(C)c1ccc(C(CN)Oc2ccc(-c3c(-c4ccncc4)nn4c3C(=O)NCC4)cc2)cc1 (stereo not shown) [Compound 147] | 5.4 | 6.7 |  | 178 |  |  | 3980 | 3980 | 3980 |  |
| CC(C)c1ccc(COc2ccc(-c3c(-c4ccncc4)nn4c3C(=O)NCC4)cc2)cc1CCN [Compound 88] | 7.1 | 6.8 |  | 181 | 79.4 |  | 12.6 |  |  | > 10000 |
| CC(C)c1ccc(COc2ccc(-c3c(-c4ccncc4)nn4c3C(=O)N(CC(=O)N(C)C)CC4)cc2)cc1 [Compound 64] | 7.1 | 6.6 |  | 199 |  |  | 79.4 | 631 | > 10000 |  |
| CC(C)c1ccc(COc2ccc(-c3c(-c4ccncc4)nn4c3C(=O)NC(CO)C4)cc2)cc1 (stereo not shown) [Compound 193] | 7.3 | 6.3 |  | 254 |  |  | 79.4 | 200 | > 10000 |  |
| CC(C)c1ccc(COc2ccc(-c3c(-c4ccncn4)nn4c3C(=O)N(CCOCCO)CC4)cc2)cc1 [Compound 162] | 7.2 | 7.1 |  |  |  |  | 79.4 | 398 | > 10000 |  |
| CC(C)c1ccc(CC(=O)N2CC=C(c3c(-c4ccncc4)nn4c3C(=O)NCC4)CC2)cc1 [Compound 77] | 6.3 | 6.3 |  |  |  |  | 316 | 2000 | > 10000 |  |
| CC(C)c1ccc(COc2ccc(-c3c(-c4ccncc4)nn4c3C(=O)NCC4)cc2)cc1CN [Compound 86] | 7.2 | 6.9 |  |  | 501 |  | 10 |  |  | > 10000 |
| CNCCc1cc(COc2ccc(-c3c(-c4ccncc4)nn4c3C(=O)NCC4)cc2)ccc1C(C)C [Compound 234] | 7.1 | 6.7 |  |  |  |  | 20 | 126 | > 10000 |  |
